Legend:
[1] = tested on: larvae of the mustard beetle (Phaedon cochleariae); test: Phaedon test (PHAECO spray treatment); assay type: in vivo; settings: application rate of 500 g/ha; spray treatment of Chinese cabbage leaf discs
Method: Phaedon Test ([…] Spray Treatment) Solvents: 78 parts by weight of acetone • • 1.5 parts by weight of dimethylformamide Emulsifier: 0.5 part by weight of alkylaryl polyglycol ether To produce a suitable preparation of active compound, 1 part by weight of active compound is mixed with the stated amounts of solvent and emulsifier, and the concentrate is diluted with emulsifier-containing water to the desired concentration. Discs of Chinese cabbage leaves (Brassica pekinensis) are sprayed with an active compound preparation of the desired concentration and, after drying, populated with larvae of the mustard beetle (Phaedon cochleariae). After the desired period of time, the effect in % is determined 100% means that all beetle larvae have been killed; 0% means that none of the beetle larvae have been killed.

[2] = tested on: green peach aphid (Myzus persicae); test: Myzus test (MYZUPE spray treatment); assay type: in vivo; settings: application rate of 500 g/ha; spray treatment of infested Chinese cabbage leaf discs, all stages
Method: Myzus Test (MYZUPE Spray Treatment) Solvents: 78 parts by weight of acetone • • 1.5 parts by weight of dimethylformamide Emulsifier: 0.5 part by weight of alkylaryl polyglycol ether To produce a suitable preparation of active compound, 1 part by weight of active compound is mixed with the stated amounts of solvent and emulsifier, and the concentrate is diluted with emulsifier-containing water to the desired concentration. Discs of Chinese cabbage leaves (Brassica pekinensis) which are infested by all stages of the green peach aphid (Myzus persicae) are sprayed with a preparation of active compound of the desired concentration. After the desired period of time, the effect in % is determined 100% means that all aphids have been killed; 0% means that none of the aphids have been killed.

`FC(F)CN(Cc1ccc(Cl)nc1)C1=CC(=S)OC1` [Ex. No. 1, 4-{[(6-Chloropyridin-3-yl)methyl](2,2-difluoroethyl)amino}furan-2(5H)-thione] was tested, and the “activity (effect in %; 100% means that all beetle larvae have been killed)” value [1] was at least 80% and the “activity (effect in %; 100% means that all aphids have been killed)” value [2] was at least 80%.

Source: US8563584B2, “Substituted enaminothiocarbonyl compounds” (Bayer CropScience AG, priority 2008, dated 2013)
